{"source": "the supplement of paper PMC11208160"}
{"experiment": "recombinant barcode read abundance after kanamycin selection (control-corrected) (log10(CPM+1)); higher = more efficient recombination; sequences stand for … in AGTGCAGAGAAAATCGGCCAGTTTTCTCTGCCTGCAGTCCGCATGCCGT…AGATTTATGCAGCGGACTGCCTTTCTCCCAAAGTGATAAACCGGACAGTATCATGGACCGGTTTTCCCGGTAATCCGTATTTGCAAGGTTGGTTTCACT; site = the 11-nt target", "summary_of_the_method": "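In a pooled screen in E. coli, targets were paired with target-binding loops of the IS621 bridge RNA. Each oligo carried a promoter, a target, a barcode and the first 104 bridge RNA bases driven by J23119, and was Gibson-cloned into a vector holding the remaining 73 bp and a T7-inducible recombinase before co-electroporation with a donor plasmid. Duplicate platings went onto chloramphenicol/ampicillin LB agar as the control or onto chloramphenicol/ampicillin/kanamycin with 0.1 mM IPTG. Recombination efficiency is the averaged, control-corrected count per million of barcodes at recombinant junctions, given as log10(CPM+1).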"}
{"sequence": "CGTGAACCTTGGGTTCTAACCTGTTGCGT (site CGTGAACCTAC)", "recombinant barcode read abundance (log10)": 2.79}
{"sequence": "CGTGAACCTTGGGTTCTAACCTGTTGCGT (site CGTTAACCTAC)", "recombinant barcode read abundance (log10)": 0.751}
{"sequence": "CGTGCGGCTTGGGTTCTAACCTGTTGCCT (site AGTGCGGCTAG)", "recombinant barcode read abundance (log10)": 0.0463}
{"sequence": "CGTGCGGCTTGGGTTCTAACCTGTTGCCT (site CGTGCGGCTAG)", "recombinant barcode read abundance (log10)": 0.486}
{"sequence": "CGTGCGGCTTGGGTTCTAACCTGTTGCCT (site GGTGCGGCTAG)", "recombinant barcode read abundance (log10)": 0.946}
{"sequence": "CGTGCGGCTTGGGTTCTAACCTGTTGCCT (site TGTGCGGCTAG)", "recombinant barcode read abundance (log10)": 0.0337}
{"sequence": "CGTGCGTCTTGGGTTCTAACCTGTTGCCT (site AGTGCGTCTAG)", "recombinant barcode read abundance (log10)": 0.208}
{"sequence": "CGTGCGTCTTGGGTTCTAACCTGTTGCCT (site CGTGCGTCTAG)", "recombinant barcode read abundance (log10)": 0.918}
{"sequence": "CGTGCGTCTTGGGTTCTAACCTGTTGCCT (site GGTGCGTCTAG)", "recombinant barcode read abundance (log10)": 0.38}
{"sequence": "CGTGCGTCTTGGGTTCTAACCTGTTGCCT (site TGTGCGTCTAG)", "recombinant barcode read abundance (log10)": 0.0337}
{"sequence": "CGTGGGCCTTGGGTTCTAACCTGTTGCCT (site CATGGGCCTAG)", "recombinant barcode read abundance (log10)": 0.295}
{"sequence": "CGTGGGCCTTGGGTTCTAACCTGTTGCCT (site CCTGGGCCTAG)", "recombinant barcode read abundance (log10)": 0.208}
{"sequence": "CGTGGGCCTTGGGTTCTAACCTGTTGCCT (site CGTGGGCCTAG)", "recombinant barcode read abundance (log10)": 0.0583}
{"sequence": "CGTGGGCCTTGGGTTCTAACCTGTTGCCT (site CTTGGGCCTAG)", "recombinant barcode read abundance (log10)": 0.0694}
{"sequence": "CGTGGTCCTTGGGTTCTAACCTGTTGCCT (site CGTGGTCCTAA)", "recombinant barcode read abundance (log10)": 0.0142}
{"sequence": "CGTGGTCCTTGGGTTCTAACCTGTTGCCT (site CGTGGTCCTAC)", "recombinant barcode read abundance (log10)": 0.413}
{"sequence": "CGTGGTCCTTGGGTTCTAACCTGTTGCCT (site CGTGGTCCTAG)", "recombinant barcode read abundance (log10)": 1.26}
{"sequence": "CGTGGTCCTTGGGTTCTAACCTGTTGCCT (site CGTGGTCCTAT)", "recombinant barcode read abundance (log10)": 0.657}
{"sequence": "CGTTAACCTTGGGTTCTAACCTGTTGCGT (site CGTAAACCTAC)", "recombinant barcode read abundance (log10)": 0.423}
{"sequence": "CGTTAACCTTGGGTTCTAACCTGTTGCGT (site CGTCAACCTAC)", "recombinant barcode read abundance (log10)": 1.48}
{"sequence": "CGTTAACCTTGGGTTCTAACCTGTTGCGT (site CGTGAACCTAC)", "recombinant barcode read abundance (log10)": 0.177}
{"sequence": "CGTTAACCTTGGGTTCTAACCTGTTGCGT (site CGTTAACCTAC)", "recombinant barcode read abundance (log10)": 1.37}
{"sequence": "CGTTAGACTTGGGTTCTAACCTGTTGCCT (site CGTAAGACTAG)", "recombinant barcode read abundance (log10)": 0.113}
{"sequence": "CGTTAGACTTGGGTTCTAACCTGTTGCCT (site CGTCAGACTAG)", "recombinant barcode read abundance (log10)": 0.267}
{"sequence": "CGTTAGACTTGGGTTCTAACCTGTTGCCT (site CGTGAGACTAG)", "recombinant barcode read abundance (log10)": 0.147}
{"sequence": "CGTTAGACTTGGGTTCTAACCTGTTGCCT (site CGTTAGACTAG)", "recombinant barcode read abundance (log10)": 0.469}
{"sequence": "CGTTCAACTTGGGTTCTAACCTGTTGCCT (site CGTTCAACTAG)", "recombinant barcode read abundance (log10)": 0.0537}
{"sequence": "CGTTCAACTTGGGTTCTAACCTGTTGCCT (site CGTTCCACTAG)", "recombinant barcode read abundance (log10)": 0.0618}
{"sequence": "CGTTCAACTTGGGTTCTAACCTGTTGCCT (site CGTTCGACTAG)", "recombinant barcode read abundance (log10)": 0.153}
{"sequence": "CGTTCAACTTGGGTTCTAACCTGTTGCCT (site CGTTCTACTAG)", "recombinant barcode read abundance (log10)": 0.0864}
{"sequence": "CGTTCATCTTGGGTTCTAACCTGTTGCCT (site CGATCATCTAG)", "recombinant barcode read abundance (log10)": 0}
{"sequence": "CGTTCATCTTGGGTTCTAACCTGTTGCCT (site CGCTCATCTAG)", "recombinant barcode read abundance (log10)": 0.0301}
{"sequence": "CGTTCATCTTGGGTTCTAACCTGTTGCCT (site CGGTCATCTAG)", "recombinant barcode read abundance (log10)": 0.0446}
{"sequence": "CGTTCATCTTGGGTTCTAACCTGTTGCCT (site CGTTCATCTAG)", "recombinant barcode read abundance (log10)": 0.0763}
{"sequence": "CGTTCTACTTGGGTTCTAACCTGTTGCCT (site CGTTCAACTAG)", "recombinant barcode read abundance (log10)": 0.0719}
{"sequence": "CGTTCTACTTGGGTTCTAACCTGTTGCCT (site CGTTCCACTAG)", "recombinant barcode read abundance (log10)": 0.286}
{"sequence": "CGTTCTACTTGGGTTCTAACCTGTTGCCT (site CGTTCGACTAG)", "recombinant barcode read abundance (log10)": 0.0414}
{"sequence": "CGTTCTACTTGGGTTCTAACCTGTTGCCT (site CGTTCTACTAG)", "recombinant barcode read abundance (log10)": 0.00743}
{"sequence": "CGTTGATCTTGGGTTCTAACCTGTTGCCT (site CGTTGATCTAG)", "recombinant barcode read abundance (log10)": 0.234}
{"sequence": "CGTTGATCTTGGGTTCTAACCTGTTGCCT (site CGTTGTTCTAG)", "recombinant barcode read abundance (log10)": 0.0674}
{"sequence": "CGTTGTCCTTGGGTTCTAACCTGTTGCAA (site CCTTGTCCTCT)", "recombinant barcode read abundance (log10)": 0.00991}
{"sequence": "CGTTGTCCTTGGGTTCTAACCTGTTGCAA (site CGTTGTCCTTT)", "recombinant barcode read abundance (log10)": 0.347}
{"sequence": "CGTTGTTCTTGGGTTCTAACCTGTTGCCT (site CGTTGATCTAG)", "recombinant barcode read abundance (log10)": 0.0873}
{"sequence": "CGTTGTTCTTGGGTTCTAACCTGTTGCCT (site CGTTGTTCTAG)", "recombinant barcode read abundance (log10)": 0.163}
{"sequence": "CTAAAAGCTTGGGTTCTAACCTGTTGCCA (site CTAAAAGCTTG)", "recombinant barcode read abundance (log10)": 0.493}
{"sequence": "CTAAAAGCTTGGGTTCTAACCTGTTGCCA (site TACTCCTCTCC)", "recombinant barcode read abundance (log10)": 0.0219}
{"sequence": "CTAAAGTCTTGGGTTCTAACCTGTTGCAC (site CTAAAGTCTGG)", "recombinant barcode read abundance (log10)": 0.0578}
{"sequence": "CTAAAGTCTTGGGTTCTAACCTGTTGCAC (site CTAAAGTCTGT)", "recombinant barcode read abundance (log10)": 1.51}
{"sequence": "CTAAAGTCTTGGGTTCTAACCTGTTGCCC (site CTAAAGTCTGG)", "recombinant barcode read abundance (log10)": 0.4}
{"sequence": "CTAAAGTCTTGGGTTCTAACCTGTTGCCC (site CTAAAGTCTGT)", "recombinant barcode read abundance (log10)": 0.136}
{"sequence": "CTAAATACTTGGGTTCTAACCTGTTGCTT (site CTAAATACTAA)", "recombinant barcode read abundance (log10)": 0.383}
{"sequence": "CTAAATACTTGGGTTCTAACCTGTTGCTT (site CTATATACTAA)", "recombinant barcode read abundance (log10)": 0.107}
{"sequence": "CTAACCTCTTGGGTTCTAACCTGTTGCAT (site CTAACCTCTAT)", "recombinant barcode read abundance (log10)": 2.1}
{"sequence": "CTAACCTCTTGGGTTCTAACCTGTTGCAT (site CTACCCTCTAT)", "recombinant barcode read abundance (log10)": 0.0596}
{"sequence": "CTAACCTCTTGGGTTCTAACCTGTTGCAT (site CTAGCCTCTAT)", "recombinant barcode read abundance (log10)": 0.151}
{"sequence": "CTAACCTCTTGGGTTCTAACCTGTTGCAT (site CTATCCTCTAT)", "recombinant barcode read abundance (log10)": 0.0287}
{"sequence": "CTAACTACTTGGGTTCTAACCTGTTGCTT (site AGTTGGCCTCT)", "recombinant barcode read abundance (log10)": 0.41}
{"sequence": "CTAACTACTTGGGTTCTAACCTGTTGCTT (site CTAACTACTAA)", "recombinant barcode read abundance (log10)": 0.252}
{"sequence": "CTAACTCCTTGGGTTCTAACCTGTTGCCT (site ATACCTCCTAG)", "recombinant barcode read abundance (log10)": 0.242}
{"sequence": "CTAACTCCTTGGGTTCTAACCTGTTGCCT (site CTAACTCCTAG)", "recombinant barcode read abundance (log10)": 0.401}
{"sequence": "CTAACTCCTTGGGTTCTAACCTGTTGCTG (site CTAACTCCTCA)", "recombinant barcode read abundance (log10)": 0.12}
{"sequence": "CTAACTCCTTGGGTTCTAACCTGTTGCTG (site CTAACTGCTCC)", "recombinant barcode read abundance (log10)": 0.524}
{"sequence": "CTAACTGCTTGGGTTCTAACCTGTTGCGG (site CTAACTCCTCA)", "recombinant barcode read abundance (log10)": 0.0417}
{"sequence": "CTAACTGCTTGGGTTCTAACCTGTTGCGG (site CTAACTGCTCC)", "recombinant barcode read abundance (log10)": 0.633}
{"sequence": "CTAACTGCTTGGGTTCTAACCTGTTGCGT (site CTAACTGCTAC)", "recombinant barcode read abundance (log10)": 0.96}
{"sequence": "CTAACTGCTTGGGTTCTAACCTGTTGCGT (site TCCCAAACTGT)", "recombinant barcode read abundance (log10)": 0.177}
{"sequence": "CTAAGAACTTGGGTTCTAACCTGTTGCCT (site CTAAGAACTAA)", "recombinant barcode read abundance (log10)": 0.0228}
{"sequence": "CTAAGAACTTGGGTTCTAACCTGTTGCCT (site CTAAGAACTAC)", "recombinant barcode read abundance (log10)": 1.05}
{"sequence": "CTAAGAACTTGGGTTCTAACCTGTTGCCT (site CTAAGAACTAG)", "recombinant barcode read abundance (log10)": 0.604}
{"sequence": "CTAAGAACTTGGGTTCTAACCTGTTGCCT (site CTAAGAACTAT)", "recombinant barcode read abundance (log10)": 0}
{"sequence": "CTAAGATCTTGGGTTCTAACCTGTTGCCT (site CAAAGATCTAG)", "recombinant barcode read abundance (log10)": 0.0172}
{"sequence": "CTAAGATCTTGGGTTCTAACCTGTTGCCT (site CCAAGATCTAG)", "recombinant barcode read abundance (log10)": 0.119}
{"sequence": "CTAAGATCTTGGGTTCTAACCTGTTGCCT (site CGAAGATCTAG)", "recombinant barcode read abundance (log10)": 0.0614}
{"sequence": "CTAAGATCTTGGGTTCTAACCTGTTGCCT (site CTAAGATCTAG)", "recombinant barcode read abundance (log10)": 0.169}
{"sequence": "CTAAGCTCTTGGGTTCTAACCTGTTGCTA (site CTAAGCTCTAA)", "recombinant barcode read abundance (log10)": 0.0436}
{"sequence": "CTAAGCTCTTGGGTTCTAACCTGTTGCTA (site CTAAGCTCTCA)", "recombinant barcode read abundance (log10)": 0.0617}
{"sequence": "CTAAGCTCTTGGGTTCTAACCTGTTGCTA (site CTAAGCTCTGA)", "recombinant barcode read abundance (log10)": 0.172}
{"sequence": "CTAAGCTCTTGGGTTCTAACCTGTTGCTA (site CTAAGCTCTTA)", "recombinant barcode read abundance (log10)": 0.939}
{"sequence": "CTAAGGACTTGGGTTCTAACCTGTTGCTA (site CGAAGGACTTA)", "recombinant barcode read abundance (log10)": 0.0114}
{"sequence": "CTAAGGACTTGGGTTCTAACCTGTTGCTA (site CTAAGGACTTA)", "recombinant barcode read abundance (log10)": 1.11}
{"sequence": "CTAAGGCCTTGGGTTCTAACCTGTTGCAT (site AAGTCCTCTCA)", "recombinant barcode read abundance (log10)": 0.428}
{"sequence": "CTAAGGCCTTGGGTTCTAACCTGTTGCAT (site CTAAGGCCTAT)", "recombinant barcode read abundance (log10)": 1.85}
{"sequence": "CTAAGGGCTTGGGTTCTAACCTGTTGCTG (site CTAAGGACTAA)", "recombinant barcode read abundance (log10)": 0.314}
{"sequence": "CTAAGGGCTTGGGTTCTAACCTGTTGCTG (site CTAAGGGCTCA)", "recombinant barcode read abundance (log10)": 0.772}
{"sequence": "CTAAGGTCTTGGGTTCTAACCTGTTGCGT (site CTAAGGTCTAA)", "recombinant barcode read abundance (log10)": 0.31}
{"sequence": "CTAAGGTCTTGGGTTCTAACCTGTTGCGT (site CTAAGGTCTAC)", "recombinant barcode read abundance (log10)": 2.69}
